Assay results: patent publication US12435059B2, “AMP-activated protein kinase inhibitors and methods of making and using the same” (The Regents of the University of Colorado, priority 2019, dated 2025)

What was measured:
Test in all cases: biochemical
Assay type in all cases: binding
468 kinases [1] = biological target: 468 kinases (Homo sapiens, UniProt O00444); conditions: PLK4; read-out: % Inhibition @ 100 nM
468 kinases [2] = biological target: 468 kinases (Homo sapiens, UniProt O43293); conditions: DAPK3; read-out: % Inhibition @ 100 nM
468 kinases [3] = biological target: 468 kinases (Homo sapiens, UniProt P00533, L858R); conditions: EGFR(L858R); read-out: % Inhibition @ 100 nM
468 kinases [4] = biological target: 468 kinases (Homo sapiens, UniProt P04626); conditions: ERBB2; read-out: % Inhibition @ 100 nM
468 kinases [5] = biological target: 468 kinases (Homo sapiens, UniProt P10721, T670I/V559D); conditions: KIT(V559D,T6701); read-out: % Inhibition @ 100 nM
468 kinases [6] = biological target: 468 kinases (Homo sapiens, UniProt P15735); conditions: PHKG2; read-out: % Inhibition @ 100 nM
468 kinases [7] = biological target: 468 kinases (Homo sapiens, UniProt P16234); conditions: PDGFRA; read-out: % Inhibition @ 100 nM
468 kinases [8] = biological target: 468 kinases (Homo sapiens, UniProt P16591); conditions: FER; read-out: % Inhibition @ 100 nM
468 kinases [9] = biological target: 468 kinases (Homo sapiens, UniProt P29322); conditions: EPHA8; read-out: % Inhibition @ 100 nM
468 kinases [10] = biological target: 468 kinases (Homo sapiens, UniProt P35626); conditions: GRK3; read-out: % Inhibition @ 100 nM
468 kinases [11] = biological target: 468 kinases (Homo sapiens, UniProt P42336, E545A); conditions: PIK3CA(E545A); read-out: % Inhibition @ 100 nM
468 kinases [12] = biological target: 468 kinases (Homo sapiens, UniProt P42336, H1047L); conditions: PIK3CA(H1047L); read-out: % Inhibition @ 100 nM
468 kinases [13] = biological target: 468 kinases (Homo sapiens, UniProt P45985); conditions: MEK4; read-out: % Inhibition @ 100 nM
468 kinases [14] = biological target: 468 kinases (Homo sapiens, UniProt P46734); conditions: MEK3; read-out: % Inhibition @ 100 nM
468 kinases [15] = biological target: 468 kinases (Homo sapiens, UniProt P53355); conditions: DAPK1; read-out: % Inhibition @ 100 nM
468 kinases [16] = biological target: 468 kinases (Homo sapiens, UniProt P53671); conditions: LIMK2; read-out: % Inhibition @ 100 nM
468 kinases [17] = biological target: 468 kinases (Homo sapiens, UniProt P54764); conditions: EPHA4; read-out: % Inhibition @ 100 nM
468 kinases [18] = biological target: 468 kinases (Homo sapiens, UniProt Q00532); conditions: CDKL1; read-out: % Inhibition @ 100 nM
468 kinases [19] = biological target: 468 kinases (Homo sapiens, UniProt Q05397); conditions: FAK; read-out: % Inhibition @ 100 nM
468 kinases [20] = biological target: 468 kinases (Homo sapiens, UniProt Q06418); conditions: TYRO3; read-out: % Inhibition @ 100 nM
468 kinases [21] = biological target: 468 kinases (Homo sapiens, UniProt Q07912); conditions: TNK2; read-out: % Inhibition @ 100 nM
468 kinases [22] = biological target: 468 kinases (Homo sapiens, UniProt Q12851); conditions: MAP4K2; read-out: % Inhibition @ 100 nM
468 kinases [23] = biological target: 468 kinases (Homo sapiens, UniProt Q2M2I8); conditions: AAK1; read-out: % Inhibition @ 100 nM
468 kinases [24] = biological target: 468 kinases (Homo sapiens, UniProt Q6ZN16); conditions: MAP3K15; read-out: % Inhibition @ 100 nM
468 kinases [25] = biological target: 468 kinases (Homo sapiens, UniProt Q8N4C8); conditions: MINK; read-out: % Inhibition @ 100 nM
468 kinases [26] = biological target: 468 kinases (Homo sapiens, UniProt Q9BRS2); conditions: RIOK1; read-out: % Inhibition @ 100 nM
468 kinases [27] = biological target: 468 kinases (Homo sapiens, UniProt Q9BVS4); conditions: RIOK2; read-out: % Inhibition @ 100 nM
468 kinases [28] = biological target: 468 kinases (Homo sapiens, UniProt Q9NRH2); conditions: SNRK; read-out: % Inhibition @ 100 nM
468 kinases [29] = biological target: 468 kinases (Homo sapiens, UniProt Q9NRM7); conditions: LATS2; read-out: % Inhibition @ 100 nM
468 kinases [30] = biological target: 468 kinases (Homo sapiens, UniProt Q9NWZ3); conditions: TRAK4; read-out: % Inhibition @ 100 nM
468 kinases [31] = biological target: 468 kinases (Homo sapiens, UniProt Q9P286); conditions: PAK7; read-out: % Inhibition @ 100 nM
468 kinases [32] = biological target: 468 kinases (Homo sapiens, UniProt Q9UF33); conditions: EPHA6; read-out: % Inhibition @ 100 nM
468 kinases [33] = biological target: 468 kinases (Mycobacterium tuberculosis, UniProt P9WI81); conditions: PKNB(M.tuberculosis); read-out: % Inhibition @ 100 nM

For `CCN(CC)CCNC(=O)c1c(C)[nH]c(/C=C2\C(=O)Nc3ccc(CCO)cc32)c1C` [Compound No. 10, (Z)—N-(2-(Diethylamino)ethyl)-5-((5-(2-hydroxyethyl)-2-oxoindolin-3-ylidene)methyl)-2,4-dimethyl-1H-pyrrole-3-carboxamide], the inhibition at 0.1 µM (468 kinases [1]) was 0%, the inhibition at 0.1 µM (468 kinases [2]) was 5% and the inhibition at 0.1 µM (468 kinases [3]) was 0%. The inhibition at 0.1 µM (468 kinases [4]) was 0%, the inhibition at 0.1 µM (468 kinases [5]) was 72% and the inhibition at 0.1 µM (468 kinases [6]) was 94.4%. For the same molecule, the inhibition at 0.1 µM (468 kinases [7]) was 84%, the inhibition at 0.1 µM (468 kinases [8]) was 12% and the inhibition at 0.1 µM (468 kinases [9]) was 0%. For the same molecule, the inhibition at 0.1 µM (468 kinases [10]) was 0%, the inhibition at 0.1 µM (468 kinases [11]) was 3% and the inhibition at 0.1 µM (468 kinases [12]) was 16%. The inhibition at 0.1 µM (468 kinases [13]) was 0%, the inhibition at 0.1 µM (468 kinases [14]) was 9% and the inhibition at 0.1 µM (468 kinases [15]) was 4%. The inhibition at 0.1 µM (468 kinases [16]) was 0%, the inhibition at 0.1 µM (468 kinases [17]) was 0% and the inhibition at 0.1 µM (468 kinases [18]) was 31%. It also gave an inhibition at 0.1 µM (468 kinases [19]) of 8%, an inhibition at 0.1 µM (468 kinases [20]) of 0% and an inhibition at 0.1 µM (468 kinases [21]) of 0%. For the same molecule, the inhibition at 0.1 µM (468 kinases [22]) was 88%, the inhibition at 0.1 µM (468 kinases [23]) was 88% and the inhibition at 0.1 µM (468 kinases [24]) was 0%. The inhibition at 0.1 µM (468 kinases [25]) was 91.8%, the inhibition at 0.1 µM (468 kinases [26]) was 88% and the inhibition at 0.1 µM (468 kinases [27]) was 0%. It also gave an inhibition at 0.1 µM (468 kinases [28]) of 12%, an inhibition at 0.1 µM (468 kinases [29]) of 4% and an inhibition at 0.1 µM (468 kinases [30]) of 68%. For the same molecule, the inhibition at 0.1 µM (468 kinases [31]) was 0%, the inhibition at 0.1 µM (468 kinases [32]) was 0% and the inhibition at 0.1 µM (468 kinases [33]) was 0%.
Work on `CCN(CC)CCNC(=O)c1c(C)[nH]c(/C=C2\C(=O)Nc3ccc(CCC(N)=O)cc32)c1C` [Compound No. 16, (Z)-5-((5-(3-Amino-3-oxopropyl)-2-oxoindolin-3-ylidene)methyl)-N-(2-(diethylamino)ethyl)-2,4-dimethyl-1H-pyrrole-3-carboxamide] yielded an inhibition at 0.1 µM (468 kinases [1]) of 57%, an inhibition at 0.1 µM (468 kinases [2]) of 21% and an inhibition at 0.1 µM (468 kinases [3]) of 32%. For the same molecule, the inhibition at 0.1 µM (468 kinases [4]) was 0%, the inhibition at 0.1 µM (468 kinases [5]) was 23% and the inhibition at 0.1 µM (468 kinases [6]) was 97.2%. It also gave an inhibition at 0.1 µM (468 kinases [7]) of 55%, an inhibition at 0.1 µM (468 kinases [8]) of 0% and an inhibition at 0.1 µM (468 kinases [9]) of 0%. It also gave an inhibition at 0.1 µM (468 kinases [10]) of 61%, an inhibition at 0.1 µM (468 kinases [11]) of 10% and an inhibition at 0.1 µM (468 kinases [12]) of 15%. It also gave an inhibition at 0.1 µM (468 kinases [13]) of 97.7%, an inhibition at 0.1 µM (468 kinases [14]) of 35% and an inhibition at 0.1 µM (468 kinases [15]) of 20%. It also gave an inhibition at 0.1 µM (468 kinases [16]) of 17%, an inhibition at 0.1 µM (468 kinases [17]) of 0% and an inhibition at 0.1 µM (468 kinases [18]) of 26%. For the same molecule, the inhibition at 0.1 µM (468 kinases [19]) was 100%, the inhibition at 0.1 µM (468 kinases [20]) was 2.1% and the inhibition at 0.1 µM (468 kinases [21]) was 20%. For the same molecule, the inhibition at 0.1 µM (468 kinases [22]) was 89%, the inhibition at 0.1 µM (468 kinases [23]) was 89% and the inhibition at 0.1 µM (468 kinases [24]) was 71%. For the same molecule, the inhibition at 0.1 µM (468 kinases [25]) was 81%, the inhibition at 0.1 µM (468 kinases [26]) was 87% and the inhibition at 0.1 µM (468 kinases [27]) was 38%. For the same molecule, the inhibition at 0.1 µM (468 kinases [28]) was 10%, the inhibition at 0.1 µM (468 kinases [29]) was 13% and the inhibition at 0.1 µM (468 kinases [30]) was 68%. It also gave an inhibition at 0.1 µM (468 kinases [31]) of 11%, an inhibition at 0.1 µM (468 kinases [32]) of 0% and an inhibition at 0.1 µM (468 kinases [33]) of 16%.
